Measurements: ChEMBL document CHEMBL5036373, “Enantiopure Benzofuran-2-carboxamides of 1-Aryltetrahydro-β-carbolines Are Potent Antimalarials In Vitro” (ACS Med Chem Lett, 2022)
Active and inactive are the calls of the source. The rule behind the calls is not given here.

How the values were obtained:
[1] = tested on: Plasmodium falciparum; experiment: Antiplasmodial activity against chloroquine, pyrimethamine and mefloquine-resistant asexual blood stage of Plasmodium falciparum Dd2 assessed as reduction in parasite growth after 72 hrs by SYBR green I staining based fluorescence assay; format: functional, organism-based; conditions: Dd2, 72 h
[2] = tested on: Plasmodium falciparum; experiment: Antiplasmodial activity against chloroquine, pyrimethamine and mefloquine-sensitive asexual blood stage of Plasmodium falciparum 3D7 assessed as reduction in parasite growth after 72 hrs by SYBR green I staining based fluorescence assay; format: functional, organism-based; conditions: 3D7, 72 h
[3] = tested on: Plasmodium berghei; experiment: In vivo antimalarial activity against blood stage transgenic Plasmodium berghei ANKA strain (PbGFP-Luccon) infected in swiss Webster mouse assessed as supression of parasitemia at 40 mg/kg, po administered once daily starting from day 2 to 6 post infection and measured at day 7 by luciferase substrate based imaging analysis; format: functional, organism-based; conditions: time 5.0 day
[4] = Stability in mouse hepatocyte assessed as half life measured after 120 mins by LC-MS analysis; format: ADME, tissue-based; conditions: hepatocytes
[5] = Stability in CD-1 mouse liver microsomes assessed as half life measured after 60 mins in presence of NADPH LC-MS analysis; format: ADME, Microsome
[6] = Solubility of the compound in pH 7.4 PBS buffer by LC-MS analysis; format: physicochemical
[7] = Partition coefficient, logD between 1-octanol and pH 7.4 PBS by LC-MS analysis; format: physicochemical; conditions: 1-octanol/PBS
[8] = Half life in rat plasma at 40 mg/kg, po; format: ADME, organism-based
[9] = tested on: Escherichia coli; experiment: Antibacterial activity against Escherichia coli BL21 (DE3) cells assessed as inhibition of bacterial growth measured after 18 hrs measured by cell density meter; format: functional
[10] = Stability in CD-1 mouse plasma measured after 60 mins LC-MS analysis; format: ADME, cell-free; conditions: read-out: Stability
[11] = Plasma protein binding in CD-1 mouse at 1 to 10 uM by LC-MS analysis; format: ADME, cell-free; conditions: dose 1-10 µM, read-out: PPB
[12] = AUC(0 to 24) in rat at 40 mg/kg, po; format: ADME, organism-based; design: time < 24 hr, route oral, dose 40 mg/kg; conditions: in vivo
[13] = Cytotoxicity against human primary hepatocytes assessed as reduction in cell viability incubated for 24 hrs by DAPI staining based fluorescence assay; design: species or system Hepatocyte
[14] = Oral bioavailability in rat; format: ADME, organism-based; conditions: in vivo
[15] = Cytotoxicity against human HEK293 cells assessed as reduction in cell viability incubated for 24 hrs by resazurin dye based fluorescence assay

CCOc1ccc([C@H]2c3[nH]c4ccccc4c3CCN2C(=O)c2cc3cc(Br)ccc3o2)cc1
EC50 [1]: 625 nM

O=C(c1cc2cc(Br)ccc2o1)N1CCc2c([nH]c3ccccc23)[C@H]1c1ccccc1
EC50 [1]: 452 nM

N#Cc1ccc([C@@H]2c3[nH]c4ccccc4c3CCN2C(=O)c2cc3cc(Br)ccc3o2)cc1
EC50 [1]: 216 nM

O=C(c1cc2cc(Cl)ccc2o1)N1CCc2c([nH]c3ccccc23)[C@H]1c1ccc(F)cc1
EC50 [1]: 143 nM

O=C(c1ccc(Br)cc1)N1CCc2c([nH]c3ccccc23)C1c1ccc(Cl)cc1 (racemic)
EC50 [1]: 682 nM

O=C(c1cc2cc(Cl)ccc2o1)N1CCc2c([nH]c3ccccc23)[C@H]1c1ccc(Cl)cc1
EC50 [2]: 304 nM
EC50 [1]: 173 nM

CCOc1ccc([C@@H]2c3[nH]c4ccccc4c3CCN2C(=O)c2cc3cc(Cl)ccc3o2)cc1
EC50 [2]: 175 nM
EC50 [1]: 129 nM

C[C@@H]1CC[C@H]2[C@@H](C)C(=O)O[C@@H]3O[C@@]4(C)CC[C@@H]1[C@]32OO4 [ARTEMISININ]
EC50 [2]: 10 nM
EC50 [1]: 11 nM

O=C(c1cc2cc(Br)ccc2o1)N1CCc2c([nH]c3ccccc23)C1c1ccc(Cl)cc1 (racemic)
EC50 [1]: 185 nM

O=C(c1cc2cc(Br)ccc2o1)N1CCc2c([nH]c3ccccc23)[C@@H]1c1ccc(Cl)cc1
EC50 [2]: 15 nM
EC50 [1]: 28 nM

COc1ccc(C(=O)N2CCc3c([nH]c4ccccc34)C2c2ccc(Cl)cc2)cc1 (racemic)
EC50 [1]: 1250 nM

O=C(CCC1CCCC1)N1CCc2c([nH]c3ccccc23)C1c1ccc(Cl)cc1 (racemic)
EC50 [1]: 726 nM

O=C(c1cc2cc(Cl)ccc2o1)N1CCc2c([nH]c3ccccc23)[C@H]1c1ccc(Br)cc1
EC50 [1]: 194 nM

CCOc1ccc([C@@H]2c3[nH]c4ccccc4c3CCN2C(=O)c2nc3cc(Br)ccc3o2)cc1
EC50 [2]: 937 nM
EC50 [1]: 770 nM

O=C(c1ccc(Cl)c(Cl)c1)N1CCc2c([nH]c3ccccc23)C1c1ccc(Cl)cc1 (racemic)
EC50 [1]: 1240 nM

O=C(c1cc2cc(Cl)ccc2[nH]1)N1CCc2c([nH]c3ccccc23)[C@H]1c1ccc(Cl)cc1
EC50 [1]: 1250 nM

CCN(CC)CCCC(C)Nc1ccnc2cc(Cl)ccc12 (stereo not drawn) [CHLOROQUINE]
EC50 [2]: 7 nM
EC50 [1]: 319 nM
Activity [3]: Active

O=C(c1cc2cc(Br)ccc2o1)N1CCc2c([nH]c3ccccc23)[C@H]1c1ccc(Cl)cc1
half-life [4]: 2.92 h
half-life [5]: 1.32 h
solubility [6]: < 0.044 µM
EC50 [2]: 180 nM
logD [7]: > 5
EC50 [1]: 155 nM
half-life [8]: 8 h
MIC [9]: > 25 µM
remaining at 1 h [10]: 100%
fraction unbound at up to 10 µM [11]: < 0.001
AUC at 24 h [12]: 28200 ng·h/mL
CC50 at 24 h [13]: > 10000 nM
bioavailability [14]: 11%
CC50 at 24 h [15]: > 50000 nM
Activity [3]: inactive

CCOc1ccc([C@@H]2c3[nH]c4ccccc4c3CCN2C(=O)c2cc3cc(Cl)ccc3[nH]2)cc1
EC50 [1]: 1250 nM

Clc1ccc(C2NCCc3c2[nH]c2ccccc32)cc1 (racemic)
EC50 [1]: 5000 nM

CCOc1ccc([C@@H]2c3[nH]c4ccccc4c3CCN2C(=O)c2cc3cc(F)ccc3o2)cc1
EC50 [1]: 123 nM

CCOc1ccc([C@@H]2c3[nH]c4ccccc4c3CCN2C(=O)c2cc3ccccc3o2)cc1
EC50 [1]: 1250 nM

O=C(c1cc2cc(Br)ccc2o1)N1CCc2c([nH]c3ccccc23)[C@H]1c1ccc(F)cc1
EC50 [1]: 211 nM

CCOc1ccc([C@@H]2c3[nH]c4ccccc4c3CCN2C(=O)c2nc3cc(Br)ccc3[nH]2)cc1
EC50 [1]: 625 nM

CC(=O)N1CCc2c([nH]c3ccccc23)C1c1ccc(Cl)cc1 (racemic)
EC50 [1]: 2500 nM

O=C(c1cc2ccc(Br)cc2o1)N1CCc2c([nH]c3ccccc23)[C@H]1c1ccc(Cl)cc1
EC50 [1]: 796 nM

O=C(c1cc2ccccc2o1)N1CCc2c([nH]c3ccccc23)[C@H]1c1ccc(Cl)cc1
EC50 [1]: 1250 nM

Cc1ccc2oc(C(=O)N3CCc4c([nH]c5ccccc45)[C@H]3c3ccc(Cl)cc3)cc2c1
EC50 [1]: 198 nM

O=C(c1cc2cc(Br)ccc2o1)N1CCc2c([nH]c3ccccc23)[C@H]1c1ccc(Br)cc1
EC50 [1]: 239 nM

CCOc1ccc([C@@H]2c3[nH]c4ccccc4c3CCN2C(=O)c2cc3cc(Br)ccc3o2)cc1
EC50 [2]: 120 nM
EC50 [1]: 138 nM

O=C(c1ccccc1)N1CCc2c([nH]c3ccccc23)C1c1ccc(Cl)cc1 (racemic)
EC50 [1]: 2500 nM
